Biological target: T1, SCD1 (Mus musculus, UniProt P13516)
T1 construct: Mouse liver microsomes, prepared from mice fed a high carbohydrate diet, were a source of the SCD; from tissue; host or cells: mouse liver microsomes (mice fed a high carbohydrate diet)
T1 sequence (P13516 1-355): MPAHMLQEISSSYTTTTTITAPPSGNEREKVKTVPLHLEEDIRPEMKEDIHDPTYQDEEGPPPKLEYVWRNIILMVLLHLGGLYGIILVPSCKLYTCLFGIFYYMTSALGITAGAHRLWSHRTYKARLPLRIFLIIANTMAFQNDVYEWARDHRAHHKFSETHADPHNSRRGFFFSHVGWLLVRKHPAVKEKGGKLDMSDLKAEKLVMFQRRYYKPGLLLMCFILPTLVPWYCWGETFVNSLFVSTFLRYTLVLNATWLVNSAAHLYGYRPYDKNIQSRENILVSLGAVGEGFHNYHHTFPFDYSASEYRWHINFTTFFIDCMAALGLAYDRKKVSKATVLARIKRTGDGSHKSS
Test: SCD assay: release of tritiated water from desaturation of 9,10-3H-stearoyl CoA, mouse liver microsomes
Assay type: biochemical
From the text: Stearoyl CoA desaturase activity was monitored by a modification of the acyl carrier protein assay described by B. R. Talamo and K. Bloch in Anal. Biochem. 1968, 29, 300-304. The SCD assay monitors the release of tritiated water from the desaturation of 9,10-^3H-stearoyl CoA.
Mouse liver microsomes, prepared from mice fed a high carbohydrate diet, were a source of the SCD and cyt b5 and cyt b5 reductase, necessary accessory proteins for the coupled reaction. Reaction mixtures for compound titrations contained 50 mM Tris HCl pH 7.5, 100 mM NaCl, 0.165 mg/ml BSA, 2.4% DMSO, 1 mM NADH, 0.03% T-20, and 300 nM (9,10) ^3H-stearoyl CoA (Perkin-Elmer). Reactions were initiated upon the addition of 4 ug/ml SCD microsomes. Incubations were terminated after 25 minutes at room temperature with cold 6% TCA. After standing 10 minutes at 4 deg C., samples were centrifuged 15 minutes at 4000 rpm to pellet precipitated protein. Supernatants were added to microtiter plates containing suspensions of activated charcoal (Darco G-60, Fisher Scientific) and mixed by inversion. Plates were then centrifuged to separate ^3H—H2O product from charcoal-bound reactants. Supernatants were quantitated in a Perkin Elmer Topcount 384 after solubilization in ScintiSafe Plus 50% (Fisher Scientific).
Inhibition (%) of SCD activity by compounds was calculated according to the following formula: % Inhibition=100*[1−(CPMsample−CPMblank)/(CPMtotal−CPMblank)]

Row | Structure (SMILES) | IC50
1 | Cc1cccc(CN2CCN(c3cc(=O)[nH]cn3)CC2)c1 [Example 1, 6-[4-(3-Methyl-benzyl)-piperazin-1-yl]-3H-pyrimidin-4-one] | ≤ 1000 nM
2 | Cc1ccccc1CN1CCN(c2cc(=O)[nH]cn2)CC1 [Example 2, 6-[4-(2-Methyl-benzyl)-piperazin-1-yl]-3H-pyrimidin-4-one] | ≤ 1000 nM
3 | Cc1cccc(C)c1CN1CCN(c2cc(=O)[nH]cn2)CC1 [Example 3, 6-[4-(2,6-Dimethyl-benzyl)-piperazin-1-yl]-3H-pyrimidin-4-one] | ≤ 1000 nM
4 | Cc1ccc(CN2CCN(c3cc(=O)[nH]cn3)CC2)c(C)c1 [Example 4, 6-[4-(2,4-Dimethyl-benzyl)-piperazin-1-yl]-3H-pyrimidin-4-one] | ≥ 1100 nM
5 | COc1ccc(CN2CCN(c3cc(=O)[nH]cn3)CC2)c(C)c1C [Example 5, 6-[4-(4-Methoxy-2,3-dimethyl-benzyl)-piperazin-1-yl]-3H-pyrimidin-4-one] | ≥ 1100 nM
6 | COc1ccc(Br)cc1CN1CCN(c2cc(=O)[nH]cn2)CC1 [Example 6, 6-[4-(5-Bromo-2-methoxy-benzyl)-piperazin-1-yl]-3H-pyrimidin-4-one] | ≥ 1100 nM
7 | COc1cc(Br)cc(CN2CCN(c3cc(=O)[nH]cn3)CC2)c1O [Example 7, 6-[4-(5-Bromo-2-hydroxy-3-methoxy-benzyl)-piperazin-1-yl]-3H -pyrimidin-4-one] | ≤ 1000 nM
8 | O=c1cc(N2CCN(Cc3ccccc3C(F)(F)F)CC2)nc[nH]1 [Example 8, 6-[4-(2-Trifluoromethyl-benzyl)-piperazin-1-yl]-3H -pyrimidin-4-one] | ≤ 1000 nM
9 | O=c1cc(N2CCN(Cc3cc(C(F)(F)F)ccc3C(F)(F)F)CC2)nc[nH]1 [Example 9, 6-[4-(2,5-Bis-trifluoromethyl-benzyl)-piperazin-1-yl]-3H -pyrimidin-4-one] | ≤ 1000 nM
10 | N#Cc1cccc(CN2CCN(c3cc(=O)[nH]cn3)CC2)c1 [Example 10, 3-[4-(6-Oxo-1,6-dihydro-pyrimidin-4-yl)-piperazin-1-ylmethyl]-benzonitrile] | ≥ 1100 nM
11 | N#Cc1cc(CN2CCN(c3cc(=O)[nH]cn3)CC2)ccc1F [Example 11, 2-Fluoro-5-[4-(6-oxo-1,6-dihydro-pyrimidin-4-yl) -piperazin-1-ylmethyl]-benzo-nitrile] | ≤ 1000 nM
12 | O=c1cc(N2CCN(Cc3cccc(Cl)c3)CC2)nc[nH]1 [Example 12, 6-[4-(3-Chloro-benzyl)-piperazin-1-yl]-3H-pyrimidin-4-one] | ≤ 1000 nM
13 | O=c1cc(N2CCN(Cc3cccc(Br)c3)CC2)nc[nH]1 [Example 13, 6-[4-(3-Bromo-benzyl)-piperazin-1-yl]-3H-pyrimidin-4-one] | ≤ 1000 nM
14 | O=c1cc(N2CCN(Cc3c(Cl)cccc3Cl)CC2)nc[nH]1 [Example 14, 6-[4-(2,6-Dichloro-benzyl)-piperazin-1-yl]-3H-pyrimidin-4-one] | ≥ 1100 nM
15 | O=c1cc(N2CCN(Cc3ccc(Cl)c(Cl)c3)CC2)nc[nH]1 [Example 15, 6-[4-(3,4-Dichloro-benzyl)-piperazin-1-yl]-3H-pyrimidin-4-one] | ≤ 1000 nM
16 | O=c1cc(N2CCN(Cc3c(Cl)ccc(Cl)c3Cl)CC2)nc[nH]1 [Example 16, 6-[4-(2,3,6-Trichloro-benzyl)-piperazin-1-yl]-3H-pyrimidin-4-one] | ≤ 1000 nM
17 | O=c1cc(N2CCN(Cc3cccc(Cl)c3Cl)CC2)nc[nH]1 [Example 17, 6-[4-(2,3-Dichloro-benzyl)-piperazin-1-yl]-3H-pyrimidin-4-one] | ≤ 1000 nM
18 | O=c1cc(N2CCN(Cc3ccccc3Br)CC2)nc[nH]1 [Example 18, 6-[4-(2-Bromo-benzyl)-piperazin-1-yl]-3H-pyrimidin-4-one] | ≤ 1000 nM
19 | O=c1cc(N2CCN(Cc3cc(Br)ccc3F)CC2)nc[nH]1 [Example 19, 6-[4-(5-Bromo-2-fluoro-benzyl)-piperazin-1-yl]-3H -pyrimidin-4-one] | ≥ 1100 nM
20 | O=c1cc(N2CCN(Cc3cc(F)ccc3Br)CC2)nc[nH]1 [Example 20, 6-[4-(2-Bromo-5-fluoro-benzyl)-piperazin-1-yl]-3H -pyrimidin-4-one] | ≤ 1000 nM
21 | O=c1cc(N2CCN(Cc3ccc(F)c(F)c3)CC2)nc[nH]1 [Example 21, 6-[4-(3,4-Difluoro-benzyl)-piperazin-1-yl]-3H-pyrimidin-4-one] | ≤ 1000 nM

Row | Structure (SMILES) | IC50
22 | O=c1cc(N2CCN(Cc3ccc(F)c(Cl)c3)CC2)nc[nH]1 [Example 22, 6-[4-(3-Chloro-4-fluoro-benzyl)-piperazin-1-yl]-3H -pyrimidin-4-one] | ≤ 1000 nM
23 | O=c1cc(N2CCN(Cc3cc(C(F)(F)F)ccc3Cl)CC2)nc[nH]1 [Example 23, 6-[4-(2-Chloro-5-trifluoromethyl-benzyl)-piperazin-1-yl]-3H-pyrimidin-4-one] | ≥ 1100 nM
24 | O=c1cc(N2CCN(Cc3cc(Cl)cc(Cl)c3O)CC2)nc[nH]1 [Example 24, 6-[4-(3,5-Dichloro-2-hydroxy-benzyl)-piperazin-1-yl]-3H-pyrimidin-4-one] | ≤ 1000 nM
25 | O=c1cc(N2CCN(Cc3cc(Br)ccc3O)CC2)nc[nH]1 [Example 25, 6-[4-(5-Bromo-2-hydroxy-benzyl)-piperazin-1-yl]-3H -pyrimidin-4-one] | ≤ 1000 nM
26 | O=c1cc(N2CCN(Cc3cccc([N+](=O)[O-])c3)CC2)nc[nH]1 [Example 26, 6-[4-(3-Nitro-benzyl)-piperazin-1-yl]-3H-pyrimidin-4-one] | ≥ 1100 nM
27 | O=c1cc(N2CCN(Cc3ccccc3[N+](=O)[O-])CC2)nc[nH]1 [Example 27, 6-[4-(2-Nitro-benzyl)-piperazin-1-yl]-3H-pyrimidin-4-one] | ≤ 1000 nM
28 | O=c1cc(N2CCN(Cc3cc(Cl)ccc3[N+](=O)[O-])CC2)nc[nH]1 [Example 28, 6-[4-(5-Chloro-2-nitro-benzyl)-piperazin-1-yl]-3H -pyrimidin-4-one] | ≤ 1000 nM
29 | O=c1cc(N2CCN(Cc3cc([N+](=O)[O-])ccc3O)CC2)nc[nH]1 [Example 29, 6-[4-(2-Hydroxy-5-nitro-benzyl)-piperazin-1-yl]-3H -pyrimidin-4-one] | ≤ 1000 nM
30 | O=c1cc(N2CCN(Cc3ccccc3O)CC2)nc[nH]1 [Example 30, 6-[4-(2-Hydroxy-benzyl)-piperazin-1-yl]-3H-pyrimidin-4-one] | ≥ 1100 nM
31 | O=c1cc(N2CCN(Cc3cc(OC(F)(F)F)ccc3O)CC2)nc[nH]1 [Example 31, 6-[4-(2-Hydroxy-5-trifluoromethoxy-benzyl)-piperazin-1-yl]-3H -pyrimidin-4-one] | ≤ 1000 nM
32 | Cc1c(Br)cccc1CN1CCN(c2cc(=O)[nH]cn2)CC1 [Example 35, 6-[4-(3-Bromo-2-methyl-benzyl)-piperazin-1-yl]-3H -pyrimidin-4-one] | ≤ 1000 nM
33 | O=c1cc(N2CCN(Cc3ccccc3-c3ccccc3)CC2)nc[nH]1 [Example 36, 6-(4-Biphenyl-2-ylmethyl-piperazin-1-yl)-3H-pyrimidin-4-one] | ≥ 1100 nM
34 | O=c1cc(N2CCN(Cc3cccc4c3OCO4)CC2)nc[nH]1 [Example 37, 6-(4-Benzo[1,3]dioxol-4-ylmethyl-piperazin-1-yl)-3H -pyrimidin-4-one] | ≥ 1100 nM
35 | Cc1cccc(CN2CCN(c3cc(=O)[nH]cn3)CC2)c1O [Example 38, 6-[4-(2-Hydroxy-3-methyl-benzyl)-piperazin-1-yl]-3H -pyrimidin-4-one] | ≤ 1000 nM
36 | Cc1ccc(O)c(CN2CCN(c3cc(=O)[nH]cn3)CC2)c1 [Example 39, 6-[4-(2-Hydroxy-5-methyl-benzyl)-piperazin-1-yl]-3H -pyrimidin-4-one] | ≤ 1000 nM
37 | C=CCc1cccc(CN2CCN(c3cc(=O)[nH]cn3)CC2)c1O [Example 40, 6-[4-(3-Allyl-2-hydroxy-benzyl)-piperazin-1-yl]-3H -pyrimidin-4-one] | ≤ 1000 nM
38 | CC(C)(C)c1cccc(CN2CCN(c3cc(=O)[nH]cn3)CC2)c1O [Example 41, 6-[4-(3-tert-Butyl-2-hydroxy-benzyl)-piperazin-1-yl]-3H-pyrimidin-4-one] | ≤ 1000 nM
39 | O=c1cc(N2CCN(Cc3cccc(F)c3O)CC2)nc[nH]1 [Example 42, 6-[4-(3-Fluoro-2-hydroxy-benzyl)-piperazin-1-yl]-3H -pyrimidin-4-one] | ≤ 1000 nM
40 | O=c1cc(N2CCN(Cc3cc(F)ccc3O)CC2)nc[nH]1 [Example 43, 6-[4-(5-Fluoro-2-hydroxy-benzyl)-piperazin-1-yl]-3H -pyrimidin-4-one] | ≤ 1000 nM
41 | O=c1cc(N2CCN(Cc3cc(F)cc(F)c3O)CC2)nc[nH]1 [Example 44, 6-[4-(3,5-Difluoro-2-hydroxy-benzyl)-piperazin-1-yl]-3H-pyrimidin-4-one] | ≤ 1000 nM

— patent publication US7652013B2, “Inhibitors of stearoyl-CoA desaturase” (Hoffman-La Roche Inc., priority 2007, dated 2010)
